Measured values: ChEMBL document CHEMBL1201862, “PubChem BioAssay data set” (2004)
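48-hour exposure; five concentrations; linearly interpolated endpoints. GI50: concentration for 50% inhibition of growth.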 The source made the active and inactive calls. No stated cut-off is given here; in the data, active = GI50 up to about 1.1 µM and inactive = higher.

Tests used:
Test in all cases: DTP human tumour cell line panel, 48 h
A549 = system: A549
BT-549 = system: BT-549
CAKI-1 = system: CAKI-1
EKVX = system: EKVX
HCT-116 = system: HCT-116
K562 = system: K562
LOX IMVI = system: LOX IMVI
M14 = system: M14
MDA-N = system: MDA-N
MOLT-4 = system: MOLT-4
NCI-H23 = system: NCI-H23
OVCAR-3 = system: OVCAR-3
OVCAR-4 = system: OVCAR-4
OVCAR-5 = system: OVCAR-5
SF-268 = system: SF-268
SF-295 = system: SF-295
SNB-75 = system: SNB-75
SR = system: SR
TK-10 = system: TK-10
UACC-62 = system: UACC-62

Measured: GI50

CC(C)OC(=O)c1ccc(NCC2=CC(=O)C=CC2=O)cc1
inactive: A549 44.3 µM | BT-549 12.9 µM | CAKI-1 3.43 µM | EKVX 17.3 µM | HCT-116 14.4 µM | K562 2.35 µM | LOX IMVI 12.8 µM | M14 14.5 µM | MDA-N 15.1 µM | MOLT-4 2.39 µM | NCI-H23 13.6 µM | OVCAR-3 6.19 µM | OVCAR-4 12.8 µM | OVCAR-5 19.4 µM | SF-268 12.3 µM | SF-295 28.2 µM | SNB-75 18.5 µM | SR 2.39 µM | TK-10 15.3 µM | UACC-62 15.3 µM

COC(=O)C1C(O)CCC2CN3CCc4c([nH]c5cccc(OC)c45)C3CC21 (stereo not given)
inactive: A549 > 100 µM | BT-549 > 100 µM | CAKI-1 > 100 µM | EKVX > 100 µM | HCT-116 > 100 µM | K562 > 100 µM | LOX IMVI > 100 µM | M14 > 100 µM | MDA-N > 100 µM | MOLT-4 > 100 µM | NCI-H23 > 100 µM | OVCAR-3 > 100 µM | OVCAR-4 > 100 µM | OVCAR-5 > 100 µM | SF-268 > 100 µM | SF-295 > 100 µM | SNB-75 > 100 µM | SR > 100 µM | TK-10 > 100 µM | UACC-62 > 100 µM

CN1CCN(CN2C(=O)C3C4C=CC(C3C2=O)C2C(=O)N(CN3CCN(C)CC3)C(=O)C42)CC1 (stereo not given)
inactive: A549 > 10 µM | BT-549 52.2 µM | CAKI-1 38.1 µM | EKVX > 100 µM | HCT-116 36.6 µM | K562 45.7 µM | LOX IMVI 24.8 µM | M14 > 51.3 µM | MDA-N > 57.3 µM | MOLT-4 36.9 µM | NCI-H23 > 49.8 µM | OVCAR-3 > 59.6 µM | OVCAR-4 > 100 µM | OVCAR-5 > 100 µM | SF-268 > 62.1 µM | SF-295 > 82.4 µM | SNB-75 > 100 µM | SR 32.4 µM | TK-10 > 70.3 µM | UACC-62 35 µM

Oc1c(C(O)(c2ccccc2)c2ccc3ccccc3c2O)ccc2ccccc12
inactive: A549 12.1 µM | BT-549 17.7 µM | CAKI-1 15 µM | EKVX 11.4 µM | HCT-116 7.76 µM | K562 2.88 µM | LOX IMVI 10.3 µM | M14 15.5 µM | MDA-N 12.2 µM | MOLT-4 1.88 µM | NCI-H23 5.12 µM | OVCAR-3 6.47 µM | OVCAR-4 8.93 µM | OVCAR-5 17.8 µM | SF-268 12.2 µM | SF-295 16.5 µM | SNB-75 14.7 µM | SR 1.26 µM | TK-10 13 µM | UACC-62 10.6 µM

Cc1ccc(/C=N/Nc2cc(C)c3ccccc3n2)s1
inactive: A549 16.5 µM | BT-549 21.3 µM | CAKI-1 11.4 µM | EKVX 4.84 µM | HCT-116 3.85 µM | K562 7 µM | LOX IMVI 10.3 µM | M14 13.7 µM | MDA-N 13.8 µM | MOLT-4 1.42 µM | NCI-H23 17.5 µM | OVCAR-3 2.65 µM | OVCAR-4 20 µM | OVCAR-5 15.6 µM | SF-268 26.1 µM | SF-295 15.1 µM | SNB-75 31.6 µM | SR 6.38 µM | TK-10 30.8 µM | UACC-62 23.4 µM

Oc1ccc(Nc2nc(Cl)c3nc[nH]c3n2)cc1
inactive: A549 > 100 µM | BT-549 > 100 µM | CAKI-1 61.9 µM | EKVX > 100 µM | HCT-116 > 100 µM | K562 50.8 µM | LOX IMVI 63.5 µM | M14 > 100 µM | MDA-N > 100 µM | MOLT-4 > 100 µM | NCI-H23 > 100 µM | OVCAR-3 > 100 µM | OVCAR-4 > 100 µM | OVCAR-5 > 100 µM | SF-268 > 100 µM | SF-295 > 100 µM | SNB-75 > 100 µM | SR 28.1 µM | TK-10 > 100 µM | UACC-62 > 100 µM

COc1cccc(Nc2nc(N)nc(N)c2N)c1
inactive: A549 > 100 µM | BT-549 35.7 µM | CAKI-1 11.8 µM | EKVX > 100 µM | HCT-116 22.2 µM | K562 37.2 µM | LOX IMVI 21.4 µM | M14 > 100 µM | MDA-N 19.5 µM | MOLT-4 15.4 µM | NCI-H23 33.4 µM | OVCAR-3 42.8 µM | OVCAR-4 > 100 µM | OVCAR-5 > 100 µM | SF-268 > 100 µM | SF-295 29.7 µM | SNB-75 > 100 µM | SR 24 µM | TK-10 > 100 µM | UACC-62 58.2 µM
